Experimental data: ChEMBL document CHEMBL5724914, “Linking interpersonal differences in gut microbiota composition and drug biotransformation activity” (2024)

Tests used:
[1] = (§1) The drug is tested on Z-024 corresponding to pig gut metagenome with ENA study accession number: PRJEB37062 and ENA sample accession number: ERS12561823 for biotransformation under anaerobic condition. The drug concentrations were measured over 9 timepoints collected between 0 and 24 hours of incubation by liquid-chromatography-coupled mass spectrometry (LC–MS); conditions: 2 µM
[2] = as §1, with “Z-017” for “Z-024”, “mouse” for “pig”, “ERS12561816” for “ERS12561823”; conditions: 2 µM
[3] = as §1, with “Z-014” for “Z-024”, “rat” for “pig”, “ERS12561814” for “ERS12561823”; conditions: 2 µM
[4] = as §1, with “Z-011” for “Z-024”, “mouse” for “pig”, “ERS12561811” for “ERS12561823”; conditions: 2 µM
[5] = as §1, with “Z-007” for “Z-024”, “rat” for “pig”, “ERS12561807” for “ERS12561823”; conditions: 2 µM
[6] = as §1, with “Z-002” for “Z-024”, “rabbit” for “pig”, “ERS12561802” for “ERS12561823”; conditions: 2 µM
[7] = as §1, with “Z-001” for “Z-024”, “mouse” for “pig”, “ERS12561801” for “ERS12561823”; conditions: 2 µM
[8] = as §1, with “WLS-220” for “Z-024”, “human” for “pig”, “ERS12561769” for “ERS12561823”; conditions: 2 µM
[9] = as §1, with “WLS-073” for “Z-024”, “human” for “pig”, “ERS12561749” for “ERS12561823”; conditions: 2 µM
[10] = as §1, with “WLS-052” for “Z-024”, “human” for “pig”, “ERS12561747” for “ERS12561823”; conditions: 2 µM
[11] = as §1, with “WLS-027” for “Z-024”, “human” for “pig”, “ERS12561744” for “ERS12561823”; conditions: 2 µM
[12] = as §1, with “WLS-007” for “Z-024”, “human” for “pig”, “ERS12561742” for “ERS12561823”; conditions: 2 µM
[13] = as §1, with “WLS-006” for “Z-024”, “human” for “pig”, “ERS12561741” for “ERS12561823”; conditions: 2 µM
[14] = human gut metagenome, 24 h, 2 µM
[15] = human gut metagenome, 24 h, 2 µM; remark: listed apart in the source
[16] = human gut metagenome, 24 h, 2 µM; remark: listed apart in the source
[17] = human gut metagenome, 24 h, 2 µM; remark: listed apart in the source
[18] = human gut metagenome, 24 h, 2 µM; remark: listed apart in the source
[19] = human gut metagenome, 24 h, 2 µM; remark: listed apart in the source
[20] = human gut metagenome, 24 h, 2 µM; remark: listed apart in the source
Note: call rule not given here.

Row | SMILES | Bacterial Biotransformation [1] | Bacterial Biotransformation [2] | Bacterial Biotransformation [3] | Bacterial Biotransformation [4] | Bacterial Biotransformation [5] | Bacterial Biotransformation [6] | Bacterial Biotransformation [7] | Bacterial Biotransformation [8] | Bacterial Biotransformation [9] | Bacterial Biotransformation [10] | Bacterial Biotransformation [11] | Bacterial Biotransformation [12] | Bacterial Biotransformation [13] | Bacterial Biotransformation [14] | Bacterial Biotransformation [15] | Bacterial Biotransformation [16] | Bacterial Biotransformation [17] | Bacterial Biotransformation [18] | Bacterial Biotransformation [19] | Bacterial Biotransformation [20]
1 | CCN(CC)C(=O)C1(c2ccccc2)CC1CN (centres undefined) | Compound NOT metabolized | Compound NOT metabolized | Compound NOT metabolized | Compound NOT metabolized | Compound NOT metabolized | Compound NOT metabolized | Compound NOT metabolized | Compound NOT metabolized | Compound NOT metabolized | Compound NOT metabolized | Compound NOT metabolized | Compound NOT metabolized | Compound NOT metabolized | Compound NOT metabolized | Compound NOT metabolized | Compound NOT metabolized | Compound NOT metabolized | Compound NOT metabolized | Compound NOT metabolized | Compound NOT metabolized
2 | COc1ccc(/C=C/C(=O)Nc2ccccc2C(=O)O)cc1OC | Compound metabolized | Compound NOT metabolized | Compound metabolized | Compound NOT metabolized | Compound NOT metabolized | Compound metabolized | Compound NOT metabolized | Compound NOT metabolized | Compound metabolized | Compound metabolized | Compound metabolized |  | Compound NOT metabolized | Compound NOT metabolized | Compound NOT metabolized | Compound NOT metabolized | Compound NOT metabolized | Compound metabolized | Compound NOT metabolized | Compound NOT metabolized
3 | Nc1nc(NC2CC2)c2ncn([C@H]3C=C[C@@H](CO)C3)c2n1.Nc1nc(NC2CC2)c2ncn([C@H]3C=C[C@@H](CO)C3)c2n1.O=S(=O)(O)O [ABACAVIR SULFATE] | Compound NOT metabolized | Compound NOT metabolized | Compound NOT metabolized | Compound metabolized | Compound NOT metabolized | Compound metabolized | Compound NOT metabolized | Compound metabolized | Compound metabolized | Compound NOT metabolized | Compound NOT metabolized | Compound NOT metabolized | Compound metabolized | Compound NOT metabolized | Compound NOT metabolized | Compound NOT metabolized | Compound NOT metabolized | Compound metabolized | Compound metabolized | Compound metabolized
4 | COC1=C(OC)C(=O)C(CCCCCCCCCCO)=C(C)C1=O [IDEBENONE] | Compound metabolized | Compound NOT metabolized | Compound metabolized | Compound metabolized | Compound metabolized | Compound metabolized | Compound NOT metabolized |  | Compound metabolized | Compound metabolized | Compound metabolized | Compound metabolized |  |  |  | Compound metabolized | Compound metabolized |  | Compound metabolized | Compound metabolized
5 | CC(=O)O[C@H]1C(=O)[C@@]2(C)[C@H]([C@H](OC(=O)c3ccccc3)[C@]3(O)C[C@H](OC(=O)[C@H](O)[C@@H](NC(=O)c4ccccc4)c4ccccc4)C(C)=C1C3(C)C)[C@]1(OC(C)=O)CO[C@@H]1C[C@@H]2O [PACLITAXEL] | Compound metabolized | Compound NOT metabolized | Compound metabolized | Compound metabolized | Compound NOT metabolized | Compound metabolized | Compound NOT metabolized | Compound NOT metabolized | Compound metabolized | Compound metabolized | Compound metabolized |  | Compound metabolized | Compound NOT metabolized | Compound NOT metabolized | Compound NOT metabolized | Compound NOT metabolized |  | Compound NOT metabolized | Compound NOT metabolized
6 | COc1cc(NC(C)CCCN)c2ncccc2c1.O=P(O)(O)O.O=P(O)(O)O (centres undefined) [PRIMAQUINE PHOSPHATE] | Compound NOT metabolized | Compound NOT metabolized | Compound NOT metabolized | Compound NOT metabolized | Compound NOT metabolized | Compound NOT metabolized | Compound NOT metabolized | Compound metabolized | Compound NOT metabolized | Compound NOT metabolized | Compound NOT metabolized |  |  | Compound NOT metabolized | Compound NOT metabolized | Compound NOT metabolized | Compound NOT metabolized | Compound NOT metabolized | Compound metabolized | Compound NOT metabolized
7 | CC(=O)OCC(=O)NCCCOc1cccc(CN2CCCCC2)c1 [ROXATIDINE ACETATE] | Compound metabolized | Compound metabolized | Compound metabolized | Compound metabolized | Compound metabolized |  | Compound metabolized | Compound metabolized | Compound metabolized | Compound metabolized |  | Compound metabolized |  | Compound metabolized | Compound metabolized | Compound metabolized | Compound metabolized | Compound metabolized |  | Compound metabolized
8 | CN[C@H]1CC[C@@H](c2ccc(Cl)c(Cl)c2)c2ccccc21 [SERTRALINE] | Compound metabolized | Compound metabolized | Compound NOT metabolized | Compound metabolized | Compound NOT metabolized | Compound NOT metabolized | Compound NOT metabolized | Compound metabolized |  | Compound metabolized | Compound metabolized | Compound metabolized | Compound metabolized | Compound NOT metabolized | Compound NOT metabolized | Compound NOT metabolized | Compound metabolized | Compound NOT metabolized | Compound metabolized | Compound NOT metabolized
9 | CCCCCNC(=N)N/N=C/c1c[nH]c2ccc(OC)cc12.O=C(O)/C=C\C(=O)O [TEGASEROD MALEATE] | Compound metabolized | Compound NOT metabolized | Compound NOT metabolized | Compound NOT metabolized | Compound NOT metabolized | Compound NOT metabolized | Compound NOT metabolized | Compound NOT metabolized | Compound metabolized | Compound metabolized | Compound NOT metabolized | Compound NOT metabolized | Compound NOT metabolized | Compound NOT metabolized | Compound NOT metabolized | Compound NOT metabolized | Compound NOT metabolized |  | Compound NOT metabolized | Compound NOT metabolized
